In US12539292B2, “BRM targeting compounds and associated methods of use” (Arvinas Operations, Inc., priority 2018, dated 2026):

Target: T1, BRM (Homo sapiens, UniProt P51531)
T1 construct: In-Cell Western Screen of BRM Degradation in SW1573 Cells; endogenous in cells; host or cells: SW1573
Assay: In-cell Western screen of BRM degradation in SW1573 cells (Dmax and DC50)
Type: cell-based
Conditions: for Dmax: SW1573, % degraded, when tested at the top concentration of between 0.3 and 10 μM, read-out: BRM Dmax (%); for DC50: target protein degradation, read-out: BRM DC50
In short: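 Overnight compound treatment (18-20 h, final DMSO 0.1%) of SW1573 cells in DMEM with 10% FBS precedes fixation and in-cell Western staining with 800/680 nm dye-labelled secondaries. Plate images give DC50 and maximal degradation.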

T1 sequence (P51531 whole entry): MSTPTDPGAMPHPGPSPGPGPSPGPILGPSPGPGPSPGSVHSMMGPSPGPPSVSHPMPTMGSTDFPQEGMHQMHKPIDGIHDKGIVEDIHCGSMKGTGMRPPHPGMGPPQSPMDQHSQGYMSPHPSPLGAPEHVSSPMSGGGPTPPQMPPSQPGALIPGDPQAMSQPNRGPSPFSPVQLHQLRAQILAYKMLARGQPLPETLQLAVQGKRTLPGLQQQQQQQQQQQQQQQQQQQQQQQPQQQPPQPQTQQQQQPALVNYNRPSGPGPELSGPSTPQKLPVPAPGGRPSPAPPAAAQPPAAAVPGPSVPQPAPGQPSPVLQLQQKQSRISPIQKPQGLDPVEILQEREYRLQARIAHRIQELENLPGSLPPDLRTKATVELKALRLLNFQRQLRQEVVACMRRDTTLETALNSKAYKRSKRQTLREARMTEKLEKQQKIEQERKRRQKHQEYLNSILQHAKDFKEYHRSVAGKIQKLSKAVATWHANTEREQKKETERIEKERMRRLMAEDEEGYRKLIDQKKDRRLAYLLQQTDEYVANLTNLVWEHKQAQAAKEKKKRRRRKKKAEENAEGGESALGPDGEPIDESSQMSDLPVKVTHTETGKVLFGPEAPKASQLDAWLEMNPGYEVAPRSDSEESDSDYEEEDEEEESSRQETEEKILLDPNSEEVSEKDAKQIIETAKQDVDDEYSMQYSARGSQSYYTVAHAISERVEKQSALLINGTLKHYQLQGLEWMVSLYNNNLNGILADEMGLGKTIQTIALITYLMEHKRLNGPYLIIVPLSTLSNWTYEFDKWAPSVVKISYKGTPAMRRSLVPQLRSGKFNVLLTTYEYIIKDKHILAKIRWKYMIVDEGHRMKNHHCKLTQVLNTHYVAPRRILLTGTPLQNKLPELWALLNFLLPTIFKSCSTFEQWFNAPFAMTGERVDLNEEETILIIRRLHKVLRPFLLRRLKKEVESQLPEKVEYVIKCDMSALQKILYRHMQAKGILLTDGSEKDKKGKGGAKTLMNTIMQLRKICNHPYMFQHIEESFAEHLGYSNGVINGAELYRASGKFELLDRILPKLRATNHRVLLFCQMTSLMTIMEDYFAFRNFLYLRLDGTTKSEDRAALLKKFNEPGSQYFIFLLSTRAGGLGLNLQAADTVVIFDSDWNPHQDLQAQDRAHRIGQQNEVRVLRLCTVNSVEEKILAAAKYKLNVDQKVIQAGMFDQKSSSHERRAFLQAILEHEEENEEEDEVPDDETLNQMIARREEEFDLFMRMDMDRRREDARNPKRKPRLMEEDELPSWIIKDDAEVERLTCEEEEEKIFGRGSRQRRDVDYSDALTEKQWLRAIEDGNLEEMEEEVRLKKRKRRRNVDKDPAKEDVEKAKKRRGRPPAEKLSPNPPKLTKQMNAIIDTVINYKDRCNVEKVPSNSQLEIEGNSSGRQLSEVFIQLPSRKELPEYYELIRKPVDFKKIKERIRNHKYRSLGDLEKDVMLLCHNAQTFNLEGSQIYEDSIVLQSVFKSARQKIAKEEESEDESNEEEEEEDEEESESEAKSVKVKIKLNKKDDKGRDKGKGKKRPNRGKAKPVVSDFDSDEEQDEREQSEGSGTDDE

| SMILES | Dmax [%] | DC50 [nM] |
| --- | --- | --- |
| Cc1ncsc1-c1ccc([C@H](C)NC(=O)[C@@H]2C[C@@H](O)CN2C(=O)[C@H](c2cc(OCCC3CCN(C(=O)[C@H]4C[C@H](CN5CCC([C@@H](C)n6cc(-c7cc(-c8ccccc8O)nnc7N)cn6)CC5)C4)CC3)no2)C(C)C)cc1 [compound 455, (2S,4R)-1-((S)-2-(3-(2-(1-((1R,3S)-3-((4-((R)-1-(4-(3-amino-6-(2-hydroxyphenyl)pyridazin-4-yl)-1H-pyrazol-1-yl)ethyl)piperidin-1-yl)methyl)cyclobutane-1-carbonyl)piperidin-4-yl)ethoxy)isoxazol-5-yl)-3-methylbutanoyl)-4-hydroxy-N-((S)-1-(4-(4-methylthiazol-5-yl)phenyl)ethyl)pyrrolidine-2-carboxamide] | > 75 | < 2.5 |
| Cc1ncsc1-c1ccc([C@H](C)NC(=O)[C@@H]2C[C@@H](O)CN2C(=O)[C@@H](c2cc(OCCC3CCN(C(=O)[C@H]4C[C@H](CN5CCC([C@@H](C)n6cc(-c7cc(-c8ccccc8O)nnc7N)cn6)CC5)C4)CC3)no2)C(C)C)cc1 [compound 456, (2S,4R)-1-((R)-2-(3-(2-(1-((1R,3R)-3-((4-((R)-1-(4-(3-amino-6-(2-hydroxyphenyl)pyridazin-4-yl)-1H-pyrazol-1-yl)ethyl)piperidin-1-yl)methyl)cyclobutane-1-carbonyl)piperidin-4-yl)ethoxy)isoxazol-5-yl)-3-methylbutanoyl)-4-hydroxy-N-((S)-1-(4-(4-methylthiazol-5-yl)phenyl)ethyl)pyrrolidine-2-carboxamide] |  | > 30 |
| Cc1ncsc1-c1ccc([C@H](C)NC(=O)[C@@H]2C[C@@H](O)CN2C(=O)[C@H](c2cc(N3CCN(CC4CCN(C[C@H]5C[C@H](Oc6cc(N7C8CCC7CN(c7cc(-c9ccccc9O)nnc7N)C8)ccn6)C5)CC4)CC3)no2)C(C)C)cc1 [compound 457, (2S,4R)-1-((2S)-2-(3-(4-((1-(((1r,3r)-3-((4-(3-(3-amino-6-(2-hydroxyphenyl)pyridazin-4-yl)-3,8-diazabicyclo[3.2.1]octan-8-yl)pyridin-2-yl)oxy)cyclobutyl)methyl)piperidin-4-yl)methyl)piperazin-1-yl)isoxazol-5-yl)-3-methylbutanoyl)-4-hydroxy-N-((S)-1-(4-(4-methylthiazol-5-yl)phenyl)ethyl)pyrrolidine-2-carboxamide] | > 75 | < 2.5 |
| Cc1ncsc1-c1ccc([C@H](C)NC(=O)[C@@H]2C[C@@H](O)CN2C(=O)[C@@H](c2cc(N3CCN(CC4CCN(C[C@H]5C[C@H](Oc6cc(N7C8CCC7CN(c7cc(-c9ccccc9O)nnc7N)C8)ccn6)C5)CC4)CC3)no2)C(C)C)cc1 [compound 458, (2S,4R)-1-((2R)-2-(3-(4-((1-(((1r,3r)-3-((4-(3-(3-amino-6-(2-hydroxyphenyl)pyridazin-4-yl)-3,8-diazabicyclo[3.2.1]octan-8-yl)pyridin-2-yl)oxy)cyclobutyl)methyl)piperidin-4-yl)methyl)piperazin-1-yl)isoxazol-5-yl)-3-methylbutanoyl)-4-hydroxy-N-((S)-1-(4-(4-methylthiazol-5-yl)phenyl)ethyl)pyrrolidine-2-carboxamide] | > 75 | < 2.5 |
| Cc1ncsc1-c1ccc([C@H](C)NC(=O)[C@@H]2C[C@@H](OP(=O)(O)O)CN2C(=O)[C@@H](c2cc(OCCN3CCC(O[C@H]4C[C@H](Oc5cc(N6C7CCC6CN(c6cc(-c8ccccc8O)nnc6N)C7)ccn5)C4)CC3)no2)C(C)C)cc1 [compound 459, (3R,5S)-1-((2R)-2-(3-(2-(4-((1r,3R)-3-((4-(3-(3-amino-6-(2-hydroxyphenyl)pyridazin-4-yl)-3,8-diazabicyclo[3.2.1]octan-8-yl)pyridin-2-yl)oxy)cyclobutoxy)piperidin-1-yl)ethoxy)isoxazol-5-yl)-3-methylbutanoyl)-5-(((S)-1-(4-(4-methylthiazol-5-yl)phenyl)ethyl)carbamoyl)pyrrolidin-3-yl dihydrogen phosphate] | > 75 | < 2.5 |
